Measured values reported in PubChem BioAssay AID330 (DTP/NCI, 2004).
Values joined by “and” are separate entries in the source; they are usually repeats but may differ in a detail not shown here. Equal entries are not always repeated. Inconclusive results and toxic doses are left out. Peptide text beside a SMILES is read from it. * marks the point of attachment. Cbz = O=C(OCc1ccccc1)*

System: P388 leukemia ip, CD2F1 mice, survival T/C
Experiment: NCI In Vivo Anticancer Drug Screen. Data for tumor model P388 Leukemia (intraperitoneal) in CD2F1 (CDF1) mice
Settings: endpoint: median survival time, higher = longer survival
Outline: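 Mice carrying the transplanted tumor received test compound or vehicle. Survival was recorded in each group, and the value is the treated-group measurement divided by that of the vehicle-treated control group.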

[1] = dose: 50.0 mg/kg/injection, schedule: Q01DX005 (ip), vehicle: Klucel (hydroxypropylcellulose) (HPC)
[2] = dose: 100.0 mg/kg/injection, schedule: Q01DX005 (ip), vehicle: Klucel (hydroxypropylcellulose) (HPC)
[3] = dose: 200.0 mg/kg/injection, schedule: Q01DX005 (ip), vehicle: Klucel (hydroxypropylcellulose) (HPC)
[4] = dose: 100.0 mg/kg/injection, schedule: Q04DX002 (ip), vehicle: saline with Tween-80
[5] = dose: 200.0 mg/kg/injection, schedule: Q04DX002 (ip), vehicle: saline with Tween-80
[6] = dose: 60.0 mg/kg/injection, schedule: Q01DX005 (ip), vehicle: saline with Tween-80
[7] = dose: 120.0 mg/kg/injection, schedule: Q01DX005 (ip), vehicle: saline with Tween-80
[8] = dose: 240.0 mg/kg/injection, schedule: Q01DX005 (ip), vehicle: saline with Tween-80
[9] = dose: 25.0 mg/kg/injection, schedule: Q01DX009 (ip), vehicle: saline with Tween-80
[10] = dose: 50.0 mg/kg/injection, schedule: Q01DX009 (ip), vehicle: saline with Tween-80
[11] = dose: 50.0 mg/kg/injection, schedule: Q01DX009 (ip), vehicle: Klucel (hydroxypropylcellulose) (HPC)
[12] = dose: 100.0 mg/kg/injection, schedule: Q01DX009 (ip), vehicle: Klucel (hydroxypropylcellulose) (HPC)
[13] = dose: 200.0 mg/kg/injection, schedule: Q01DX009 (ip), vehicle: Klucel (hydroxypropylcellulose) (HPC)
[14] = dose: 12.5 mg/kg/injection, schedule: Q01DX009 (ip), vehicle: saline with Tween-80
[15] = dose: 100.0 mg/kg/injection, schedule: Q01DX001 (ip), vehicle: Klucel (hydroxypropylcellulose) (HPC)
[16] = dose: 200.0 mg/kg/injection, schedule: Q01DX001 (ip), vehicle: Klucel (hydroxypropylcellulose) (HPC)
[17] = dose: 400.0 mg/kg/injection, schedule: Q01DX001 (ip), vehicle: Klucel (hydroxypropylcellulose) (HPC)

SMILES: Fc1ccc(NC(=S)SCc2ccc3c(c2)OCO3)cc1
- T/C (dose: 50.0 mg/kg/injection, schedule: Q01DX009 (ip), vehicle: suspension in saline): 101 % of control
- T/C (dose: 100.0 mg/kg/injection, schedule: Q01DX009 (ip), vehicle: suspension in saline): 101 % of control
- T/C (dose: 200.0 mg/kg/injection, schedule: Q01DX009 (ip), vehicle: suspension in saline): 116 % of control

SMILES: CS(=O)(=O)N/N=C1/C=C2C/C(=N\NS(C)(=O)=O)C=C2C1
- T/C [1]: 92 % of control
- T/C [2]: 96 % of control
- T/C [3]: 95 % of control

SMILES: NC(Cc1ccccc1)C(=O)Nc1cccnc1 (centres undefined)
- T/C (dose: 15.0 mg/kg/injection, schedule: Q01DX005 (ip), vehicle: saline): 98 % of control
- T/C (dose: 30.0 mg/kg/injection, schedule: Q01DX005 (ip), vehicle: saline): 102 % of control
- T/C (dose: 60.0 mg/kg/injection, schedule: Q01DX005 (ip), vehicle: saline): 102 % of control and 105 % of control

SMILES: NC(C[O-])C(=O)[O-].NCC(=O)[O-].[Mn+3] (centres undefined)
- T/C [4]: 114 % of control
- T/C [5]: 113 % of control

SMILES: Cc1cc2c(=O)cc(-c3ccccc3)oc2c(C(N)=O)c1C
- T/C [6]: 99 % of control
- T/C [7]: 98 % of control
- T/C [8]: 93 % of control

SMILES: CCO/C(CC#N)=C(/C#N)C(=O)Nc1ccc(OC)cc1
- T/C [6]: 95 % of control
- T/C [7]: 93 % of control
- T/C [8]: 89 % of control

SMILES: CC(C)(C)N(OC(=O)c1ccc(Cl)cc1)c1ccccc1
- T/C [9]: 99 % of control
- T/C [10]: 99 % of control

SMILES: Cc1ccc(S(=O)c2cc(C(C)(C)C)cc(C(C)(C)C)c2O)cc1 (centres undefined)
- T/C [10]: 103 % of control
- T/C (dose: 100.0 mg/kg/injection, schedule: Q01DX009 (ip), vehicle: saline with Tween-80): 110 % of control
- T/C (dose: 200.0 mg/kg/injection, schedule: Q01DX009 (ip), vehicle: saline with Tween-80): 88 % of control

SMILES: Cc1[nH]nc2c(C/C=C/c3ccccc3)n[nH]c(=O)c12
- T/C [11]: 98 % of control
- T/C [12]: 100 % of control
- T/C [13]: 101 % of control

SMILES: CCN(CC)CCN1C(=O)c2cccc3cc(N)cc(c23)C1=O
- T/C (dose: 1.56 mg/kg/injection, schedule: Q01DX009 (ip), vehicle: saline with Tween-80): 101 % of control
- T/C (dose: 1.6 mg/kg/injection, schedule: Q01DX009 (ip), vehicle: saline with Tween-80): 100 % of control
- T/C (dose: 3.12 mg/kg/injection, schedule: Q01DX009 (ip), vehicle: saline with Tween-80): 98 % of control
- T/C (dose: 3.2 mg/kg/injection, schedule: Q01DX009 (ip), vehicle: saline with Tween-80): 108 % of control
- T/C (dose: 6.25 mg/kg/injection, schedule: Q01DX009 (ip), vehicle: saline with Tween-80): 98 % of control
- T/C (dose: 6.5 mg/kg/injection, schedule: Q01DX009 (ip), vehicle: saline with Tween-80): 107 % of control and 123 % of control
- T/C [14]: 107 % of control
- T/C (dose: 13.1 mg/kg/injection, schedule: Q01DX009 (ip), vehicle: saline with Tween-80): 121 % of control and 123 % of control
- T/C [9]: 114 % of control
- T/C (dose: 26.0 mg/kg/injection, schedule: Q01DX009 (ip), vehicle: saline with Tween-80): 124 % of control
- T/C [10]: 160 % of control

SMILES: O=C(NC(CO)C(=O)NC(Cc1ccc(O)cc1)C(=O)O)OCc1ccccc1 (stereo not drawn) (Cbz-Ser-Tyr-OH; configuration not given here)
- T/C [1]: 98 % of control
- T/C [2]: 100 % of control
- T/C [3]: 101 % of control

SMILES: O=C(Nc1cccc(Cl)c1)c1cc(N=Nc2ccc([N+](=O)[O-])cc2Cl)ccc1O
- T/C (dose: 12.5 mg/kg/injection, schedule: Q01DX009 (ip), vehicle: Klucel (hydroxypropylcellulose) (HPC)): 104 % of control
- T/C [14]: 105 % of control
- T/C (dose: 25.0 mg/kg/injection, schedule: Q01DX009 (ip), vehicle: Klucel (hydroxypropylcellulose) (HPC)): 113 % of control
- T/C (dose: 25.0 mg/kg/injection, schedule: Q04DX003 (ip), vehicle: Klucel (hydroxypropylcellulose) (HPC)): 107 % of control
- T/C [11]: 113 % of control
- T/C (dose: 50.0 mg/kg/injection, schedule: Q04DX003 (ip), vehicle: Klucel (hydroxypropylcellulose) (HPC)): 107 % of control
- T/C [12]: 118 % of control
- T/C (dose: 100.0 mg/kg/injection, schedule: Q04DX003 (ip), vehicle: Klucel (hydroxypropylcellulose) (HPC)): 115 % of control
- T/C (dose: 200.0 mg/kg/injection, schedule: Q04DX003 (ip), vehicle: Klucel (hydroxypropylcellulose) (HPC)): 115 % of control

SMILES: CC1(O)C2C3C(I)C4C5C3C1C5C42 (centres undefined)
- T/C [15]: 92 % of control
- T/C [16]: 88 % of control
- T/C [17]: 87 % of control

SMILES: CN(C)c1cccc2c(S(=O)(=O)Cl)cccc12
- T/C (dose: 25.0 mg/kg/injection, schedule: Q04DX003 (ip), vehicle: saline with Tween-80): 106 % of control
- T/C (dose: 50.0 mg/kg/injection, schedule: Q04DX003 (ip), vehicle: saline with Tween-80): 114 % of control
- T/C (dose: 100.0 mg/kg/injection, schedule: Q04DX003 (ip), vehicle: saline with Tween-80): 110 % of control
- T/C (dose: 200.0 mg/kg/injection, schedule: Q04DX003 (ip), vehicle: saline with Tween-80): 124 % of control

SMILES: CCC(=O)c1ccc(NC(=O)Nc2ncccn2)cc1
- T/C (dose: 60.0 mg/kg/injection, schedule: Q01DX005 (ip), vehicle: Klucel (hydroxypropylcellulose) (HPC)): 86 % of control
- T/C (dose: 120.0 mg/kg/injection, schedule: Q01DX005 (ip), vehicle: Klucel (hydroxypropylcellulose) (HPC)): 89 % of control
- T/C (dose: 240.0 mg/kg/injection, schedule: Q01DX005 (ip), vehicle: Klucel (hydroxypropylcellulose) (HPC)): 95 % of control

SMILES: Cc1c(NC(=S)Nc2ccccc2C(F)(F)F)c(=O)n(-c2ccccc2)n1C
- T/C [11]: 92 % of control
- T/C [12]: 96 % of control
- T/C [13]: 100 % of control

SMILES: CCOc1ccc(NC(=O)c2c(N)n(C)c(=O)n(C)c2=O)cc1
- T/C [11]: 88 % of control
- T/C [12]: 93 % of control

SMILES: O=[N+]([O-])c1cnc(Sc2ccncn2)s1
- T/C (dose: 1.56 mg/kg/injection, schedule: Q01DX009 (ip), vehicle: saline): 103 % of control
- T/C (dose: 3.12 mg/kg/injection, schedule: Q01DX009 (ip), vehicle: saline): 108 % of control
- T/C (dose: 6.25 mg/kg/injection, schedule: Q01DX009 (ip), vehicle: saline): 100 % of control and 87 % of control
- T/C (dose: 12.5 mg/kg/injection, schedule: Q01DX009 (ip), vehicle: saline): 93 % of control

SMILES: CC[C@@]1(O)CC(OC2CC(N3CCOCC3)C(O)C(C)O2)c2c(O)c3c(c(O)c2[C@H]1O)C(=O)c1cccc(O)c1C3=O (some centres undefined)
- T/C (dose: 0.89 mg/kg/injection, schedule: Q04DX003 (iv), vehicle: saline): 163 % of control
- T/C (dose: 1.33 mg/kg/injection, schedule: Q04DX003 (iv), vehicle: saline): 186 % of control
- T/C (dose: 2.0 mg/kg/injection, schedule: Q04DX003 (iv), vehicle: saline): 209 % of control
- T/C (dose: 3.0 mg/kg/injection, schedule: Q04DX003 (iv), vehicle: saline): 242 % of control
- T/C (dose: 4.5 mg/kg/injection, schedule: Q04DX003 (iv), vehicle: saline): 113 % of control

SMILES: O=[N+]([O-])c1ccc(N=Nc2ccc(N(CCCl)CCCl)cc2)c([N+](=O)[O-])c1
- T/C [15]: 106 % of control
- T/C [16]: 108 % of control
- T/C [17]: 103 % of control

SMILES: O=C(NC(Cc1ccc(Cl)cc1)C(=O)O)c1ccccc1 (centres undefined)
- T/C (dose: 25.0 mg/kg/injection, schedule: Q01DX009 (ip), vehicle: other): 98 % of control
- T/C (dose: 50.0 mg/kg/injection, schedule: Q01DX009 (ip), vehicle: other): 97 % of control
- T/C (dose: 100.0 mg/kg/injection, schedule: Q01DX009 (ip), vehicle: other): 106 % of control

SMILES: CSc1c(C#N)c(N)nn1-c1ccccn1
- T/C [4]: 100 % of control
- T/C [5]: 98 % of control
- T/C (dose: 400.0 mg/kg/injection, schedule: Q04DX002 (ip), vehicle: saline with Tween-80): 99 % of control

SMILES: O=C(c1ccc(Cl)cc1)n1c(Cl)c(/C=N\Nc2ccc([N+](=O)[O-])cc2[N+](=O)[O-])c2ccccc21
- T/C (dose: 12.5 mg/kg/injection, schedule: Q01DX001 (ip), vehicle: Klucel (hydroxypropylcellulose) (HPC)): 92 % of control
- T/C (dose: 25.0 mg/kg/injection, schedule: Q01DX001 (ip), vehicle: Klucel (hydroxypropylcellulose) (HPC)): 96 % of control
- T/C (dose: 50.0 mg/kg/injection, schedule: Q01DX001 (ip), vehicle: Klucel (hydroxypropylcellulose) (HPC)): 88 % of control
